System: human promyelocytic leukemia HL-60 cells
Assay: in vivo anti-tumor (anti-leukemia) study, HL-60 xenografts in nude mice
Design: species or system Athymic nude mice (BALB/c nu/nu)
Conditions: for % inhibition for 1.5 mg/kg/day dosage group: 1.5 mg/kg/day oral (gastric gavage), from relative tumor weight vs control
Method: The following study on nude mice was conducted to investigate the in vivo anti-tumor activities, specifically the anti-leukemia effects, of ergosta-7,22-dien-3β-ol.
Athymic nude mice (BALB/c nu/nu, with body weight of 20-25 g and aged 6-10 weeks) were kept in autoclaved cages with polyester fiber filters to avoid contact with the pathogens. All the animal diet and tap water were autoclaved before feeding to nude mice ad libitum.
Suspension of 1×10^7 of human promyelocytic leukemia HL-60 cells was then injected subcutaneously (s.c.) into the dorsal side of nude mice.
In this study, the tested item was the powders of ergosta-7,22-dien-3β-ol obtained according to the method described in Example 1 above.
When palpable tumors (about 100-200 mm^3 in volume) arose within 14-21 days after injection, the mice were randomly divided into three treatment groups and one control group in which each group consisted of 15 mice. Then, the mice in the treatment group were administrated with the tested item at three dose levels of 1.5, 15.0 or 50.0 mg (of tested item)/kg (of body weight of mouse)/day (in distilled water), while those mice in the control group were administrated with distilled water (as control vehicle). Both groups of mice were administrated by oral route (gastric gavage) daily (except Sundays) for up to 28 days. Tumor dimension was measured on every Mondays, Wednesdays and Fridays.
Tumor dimension was measured by Vernier caliper and tumor weight and tumor volume were calculated according to the following formulae:
Tumor weight (mg)=L×W^2×π/6; and
Tumor volume (mm^3)=L×W×H×π/6;
where L, W, and H were the major dimension, the minor dimension, and the height of the tumor respectively (π=3.1416).
The relative tumor weight was calculated by dividing the tumor weight on a certain day by the mean tumor weight on Day 1. Similarly, the relative tumor volume was calculated by dividing the tumor volume on a certain day by the mean tumor volume on Day 1.
Upon 28 days of administration, the nude mice were euthanized and the final body and tumor weights were recorded for calculating the ratio of the final tumor-to-body weight.
The above-shown results were expressed as the mean±SE of the percentage of inhibition of the tested item on the growth of HL-60 xenografts in nude mice in single experiments. Percentage of inhibition (for any Day n) was calculated from the following formula:
(1−relative tumor weight of treatment group on Day n/relative tumor weight of control group on Day n)×100%.

[1] = 1.5, 15.0 or 50.0 mg/kg/day oral, up to 28 days, all three treatment groups, 1.5 mg/kg/day most significant

Structure (SMILES): CC(C)[C@@H](C)/C=C/[C@@H](C)[C@H]1CC[C@H]2C3=CCC4C[C@@H](O)CC[C@]4(C)[C@H]3CC[C@]12C (stereo partly drawn) [ergosta-7,22-dien-3β-ol]
- Anti-tumor activity (1.5, 15.0 and 50.0 mg/kg/day oral, HL-60 xenografts in nude mice): observed at all three dosage groups
- percentage ratios of final tumor-to-body weight (1.5, 15.0 or 50.0 mg/kg/day oral, after 28 days, three treatment groups vs control, 1.5 mg/kg/day most significant): lower than that of the control group
- relative tumor volume [1]: some effects in the reductions
- relative tumor weight [1]: some effects in the reductions
- % inhibition for 1.5 mg/kg/day dosage group (Day 1, HL-60 xenografts in nude mice): 0.00%
- % inhibition for 1.5 mg/kg/day dosage group (Day 3, HL-60 xenografts in nude mice): 11.35%
- % inhibition for 1.5 mg/kg/day dosage group (Day 5, HL-60 xenografts in nude mice): 11.24%
- % inhibition for 1.5 mg/kg/day dosage group (Day 8, HL-60 xenografts in nude mice): 23.69%
- % inhibition for 1.5 mg/kg/day dosage group (Day 10, HL-60 xenografts in nude mice): 31.65%
- % inhibition for 1.5 mg/kg/day dosage group (Day 12, HL-60 xenografts in nude mice): 32.32%
- % inhibition for 1.5 mg/kg/day dosage group (Day 15, HL-60 xenografts in nude mice): 30.61%
- % inhibition for 1.5 mg/kg/day dosage group (Day 17, HL-60 xenografts in nude mice): 34.99%
- % inhibition for 1.5 mg/kg/day dosage group (Day 19, HL-60 xenografts in nude mice): 43.19%
- % inhibition for 1.5 mg/kg/day dosage group (Day 22, HL-60 xenografts in nude mice): 38.94%
- % inhibition for 1.5 mg/kg/day dosage group (Day 24, HL-60 xenografts in nude mice): 40.57%
- % inhibition for 1.5 mg/kg/day dosage group (Day 26, HL-60 xenografts in nude mice): 44.32%

Reference: patent publication US20090247497A1, “FORMULATION AND USE OF ERGOSTA-7,22-DIEN-3BETA-OL” (priority 2008, published 2009)
